Experiments:
[1] = target: T1, Tyrosine-protein kinase ABL1 [1-999,Q252H] (Homo sapiens, UniProt P00519, Q252H); experiment: Biochemcial Assay; conditions: pH 7.5
T1 construct: 1-999
Text: An in vitro kinase assay using phosphorylated recombinant human Abl kinase domains to phosphorylate a peptide substrate.

[2] = target: T1, Tyrosine-protein kinase ABL1 [1-999,Q252H]; experiment: Biochemcial Assay; conditions: pH 7.5; remark: listed apart in the source
Text: An in vitro kinase assay using dephophorylated conformationally inactive Abl kinase was obtained by treating pure recombinant Abl with Yersinia […] phosphatase from Calbiochem.

Structure (SMILES)	IC50 [1] [nM]	IC50 [2] [nM]
Cc1ccc(Cl)cc1Nc1nccc(-c2cccnc2)n1 [Type I progenitor, 1]	> 5000	> 5000
O=[N+]([O-])c1ccc(Oc2ncnc3[nH]ccc23)cc1 [Type I progenitor, 4]	> 5000	> 5000
O=C(Nc1ccc(N2CCOCC2)cc1)c1cc2cnc3[nH]ccc3c2s1 [Type I progenitor, 7]	> 5000	> 5000
CC(O)c1cccc(Nc2ncc3cc(-c4c(Cl)cccc4Cl)c(=O)n(C)c3n2)c1 (stereo unspecified) [Type I progenitor, 11]	5.7	5.8
Cc1ccc(NC(=O)c2cccc(C(F)(F)F)c2)cc1Nc1nccc(-c2cccnc2)n1 [Type II inhibitor, 2]	152	5
Cc1ccc(N(C)C(=O)c2cccc(C(F)(F)F)c2)cc1Nc1nccc(-c2cccnc2)n1 [Type II inhibitor, 3]	> 5000	1360
O=C(Nc1ccc(Oc2ncnc3[nH]ccc23)cc1)Nc1cccc(C(F)(F)F)c1 [Type II inhibitor, 5]	> 5000	374
O=C(Cc1cccc(C(F)(F)F)c1)Nc1ccc(Oc2ncnc3[nH]ccc23)cc1 [Type II inhibitor, 6]	> 5000	> 5000
Cc1cc(NC(=O)c2cccc(C(F)(F)F)c2)ccc1NC(=O)c1cc2cnc3[nH]ccc3c2s1 [Type II inhibitor, 8]	> 5000	154
Cc1cc(N(C)C(=O)c2cccc(C(F)(F)F)c2)ccc1NC(=O)c1cc2cnc3[nH]ccc3c2s1 [Type II inhibitor, 10]	> 5000	> 5000
CC(O)c1cccc(Nc2ncc3cc(-c4cc(NC(=O)c5cccc(C(F)(F)F)c5)ccc4Cl)c(=O)n(C)c3n2)c1 (stereo unspecified) [Type II inhibitor, 12]	19.6	27.2
CC(O)c1cccc(Nc2ncc3cc(-c4cc(N(C)C(=O)c5cccc(C(F)(F)F)c5)ccc4Cl)c(=O)n(C)c3n2)c1 (stereo unspecified) [Type II inhibitor, 13]	150	9.1
Cc1ccc(N(C)C(=O)c2cccc(C(F)(F)F)c2)cc1N1Cc2cnc(N)nc2N(C)C1=O [Type II inhibitor, 15]	> 5000	> 5000

Reference: BindingDB's records for doi:10.1016/j.chembiol.2006.05.015 (The Scripps Research Institute, 2006)
